CLhep predicted and IC50 data for 3 compounds are collected here from patent US10835533B2, “1 -((3S,4R)-4-(3-fluorophenyl)-1-(2-methoxyethyl)pyrrolidin-3-yl)-3-(4-methyl-3-(2-methylpyrimidin-5-yl)-1-phenyl-1H-pyrazol-5-yl)urea as a TrkA kinase inhibitor” (Array BioPharma Inc., priority 2014, dated 2020).

Data set [1] can be described thus: Liver microsomal clearance, mouse. In kind it is in vitro ADME. Conditions: pH 7.4; Mouse liver microsomes; 1 mg/mL; 20 minutes. As for the experimental part:
The predicted hepatic clearance (CLh) value was calculated by scaling the in vitro half-life (t1/2) for stability of the compound in liver microsomes (1 mg/mL; 20 minutes) using the physical and physiological scaling factors used to predict intrinsic clearance (CLint) and hepatic clearance (CLhep) listed in Table 2 and employed in the following equations: […]
where D is the amount of cytochrome P450-related protein per mass of liver, W is the average mass of liver present per weight of animal, C is the liver microsomal concentration, and Q is the species-dependent hepatic blood flow.
A 100 mM potassium phosphate assay buffer solution (KPB) was prepared as follows. Both KH2PO4 and K2HPO4 were dissolved separately in reagent grade water resulting in final concentrations 100 mM. A 75:25 mixture v/v of K2HPO4:KH2PO4 was prepared and the pH of the solution was adjusted to 7.4 using diluted HCl or diluted NaOH solutions. Stock solutions of Compound 1, Compound 2 and Compound 3 were prepared at 10 mM (active compound) in DMSO. The stock solution was diluted immediately before use to 2.5 μM using the KPB solution to create the working standard. All test compounds were completely soluble in DMSO by visual inspection at room temperature. The NADPH-regenerating solution (NRS) was prepared on the day of analysis by diluting one volume of 17 mg/mL NADP^+ with one volume of 78 mg/mL glucose-6-phosphate (both prepared in KPB, pH 7.4) and 7.9 volumes of 20 mM MgCl2. The final concentrations of NADP^+ and glucose-6-phosphate were 1.7 mg/mL and 7.8 mg/mL, respectively. […]
All calculations were performed using BioAssay Enterprise. The mean peak area ratios were calculated by averaging the peak area ratios (n=2) of Compound 1, Compound 2, Compound 3, and the internal standard for each sample. Percent remaining was calculated by determining the ratio of the peak area ratio at each time point to the peak area ratio of the time-zero samples. The rate of loss of test compound (km) was determined by linear regression of −ln(f(t)) versus time. […] The t1/2 was determined dividing ln(2) by km. […]

The target in data set [2] is T1, CHO-K1 cells transfected with human wild type TrkA (Homo sapiens, UniProt P04629).
T1 construct: expressed in transfected cells; host or cells: CHO-K1
Description: TrkA Cell Assay, phospho-TrkA ELISA (Example B). In kind it is cell-based. To be noted: assay of Example B, 30 ng/mL human NGF, read-out: averaged IC50 value, phospho-TrkA. As for the experimental part:
CHO-K1 cells transfected with human wild type TrkA were plated in a 96-well flat-bottom plate at 3×10^5 cells/well in complete DMEM medium containing 10% FBS and allowed to attach for 24 hours at 37° C., 5% CO2. Medium was then replaced with complete serum free assay medium and the cells were serum starved for 1 hour at 37° C., 5% CO2. Cells were treated with Compound 1, 2 or 3 using 1:3 serial dilutions with final concentrations ranging from 1 μM to […]. The compound was incubated on cells for 1 hour at 37° C., 5% CO2. Cells were then stimulated with a final concentration of 30 ng/mL human NGF for 7 minutes at 37° C., 5% CO2. Medium was removed and cells were lysed with lysis buffer containing phosphatase and protease inhibitors. Phospho-TrkA was measured by ELISA (R&D Catalog No. DYC2578). The ELISA captured total TrkA and detected total phosphor-tyrosine. Optical density was measured for each well using a Versamax reader at a wave length of 450 nm. The IC50 values were determined by fitting a four parameter model to the percent of control data.

T1 sequence (P04629 33-796): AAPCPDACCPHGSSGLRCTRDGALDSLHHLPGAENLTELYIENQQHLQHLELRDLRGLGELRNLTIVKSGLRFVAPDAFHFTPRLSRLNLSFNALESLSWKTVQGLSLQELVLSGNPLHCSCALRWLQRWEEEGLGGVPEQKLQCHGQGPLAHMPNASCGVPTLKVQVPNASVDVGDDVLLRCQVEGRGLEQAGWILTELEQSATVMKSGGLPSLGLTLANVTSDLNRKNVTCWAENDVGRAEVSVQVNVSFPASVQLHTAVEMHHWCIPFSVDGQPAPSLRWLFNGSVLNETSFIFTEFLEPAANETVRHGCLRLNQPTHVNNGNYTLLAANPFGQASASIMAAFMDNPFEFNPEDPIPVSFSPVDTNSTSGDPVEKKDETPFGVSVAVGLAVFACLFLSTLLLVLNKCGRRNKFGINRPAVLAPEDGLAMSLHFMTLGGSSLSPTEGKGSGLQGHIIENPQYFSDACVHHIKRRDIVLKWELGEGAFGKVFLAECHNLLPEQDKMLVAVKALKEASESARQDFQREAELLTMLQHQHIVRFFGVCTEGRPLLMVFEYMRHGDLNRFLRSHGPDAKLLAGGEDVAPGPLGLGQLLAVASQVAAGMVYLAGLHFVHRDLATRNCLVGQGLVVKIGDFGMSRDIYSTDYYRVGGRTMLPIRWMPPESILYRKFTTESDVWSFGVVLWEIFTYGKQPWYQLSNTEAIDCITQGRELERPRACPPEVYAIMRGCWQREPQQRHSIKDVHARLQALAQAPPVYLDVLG

As to `COCCN1C[C@@H](NC(=O)Nc2c(C)c(-c3cnc(C)nc3)nn2-c2ccccc2)[C@H](c2ccc(F)c(F)c2)C1` [Compound 2, 1-((3S,4R)-4-(3,4-difluorophenyl)-1-(2-methoxyethyl)pyrrolidin-3-yl)-3-(4-methyl-3-(2-methylpyrimidin-5-yl)-1-phenyl-1H-pyrazol-5-yl)urea], the CLhep predicted at 1 μM in data set [1] was 57 mL/min/kg. For the same compound, the IC50 in data set [2] came to 1.3 nM.
In the case of `COCCN1C[C@@H](NC(=O)Nc2c(C)c(-c3cnn(C)c3)nn2-c2ccccc2)[C@H](c2ccc(F)cc2)C1` [Compound 3, 1-(1′,4-dimethyl-1-phenyl-1H,1′H-[3,4′-bipyrazol]-5-yl)-3-((3S,4R)-4-(4-fluorophenyl)-1-(2-methoxyethyl)pyrrolidin-3-yl)urea], the CLhep predicted at 1 μM in data set [1] was 60 mL/min/kg. For the same compound, the IC50 in data set [2] stood at 6.1 nM.
Turning to `COCCN1C[C@@H](NC(=O)Nc2c(C)c(-c3cnc(C)nc3)nn2-c2ccccc2)[C@H](c2cccc(F)c2)C1` [Compound 1, 1-((3S,4R)-4-(3-fluorophenyl)-1-(2-methoxyethyl)pyrrolidin-3-yl)-3-(4-methyl-3-(2-methylpyrimidin-5-yl)-1-phenyl-1H-pyrazol-5-yl)urea], the CLhep predicted at 1 μM in data set [1] was 50 mL/min/kg. Moreover, the IC50 in data set [2] turned out to be 1.9 nM.
